Laboratory results reported in patent US20240092784A1, “CONDENSED HETEROCYCLIC COMPOUND” (NISSAN CHEMICAL CORPORATION, priority 2020, published 2024).

Target: human SPR (Homo sapiens (Human), UniProt P35270)
Test: Evaluation Example 2: Measurement of human SPR inhibitory activity (seven concentrations, sepiapterin absorbance at 420 nm)
Assay type: biochemical
Conditions: sepiapterin absorbance, Table 41, read-out: concentration at 50% inhibition of human SPR (IC50)
Procedure, shortened: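 His-tagged full-length human SPR (1-261) was expressed in E. coli and the tag removed. Enzyme at 150 ng/mL in 100 mM Tris-HCl pH 7.5/0.01% BSA was mixed with compound (0.14–100 nM, seven points), 120 μM sepiapterin and 160 μM NADPH, both as added-solution concentrations. After 240 min at room temperature, remaining sepiapterin was read at 420 nm to give percent inhibition.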

Chain of human SPR (P35270 whole entry): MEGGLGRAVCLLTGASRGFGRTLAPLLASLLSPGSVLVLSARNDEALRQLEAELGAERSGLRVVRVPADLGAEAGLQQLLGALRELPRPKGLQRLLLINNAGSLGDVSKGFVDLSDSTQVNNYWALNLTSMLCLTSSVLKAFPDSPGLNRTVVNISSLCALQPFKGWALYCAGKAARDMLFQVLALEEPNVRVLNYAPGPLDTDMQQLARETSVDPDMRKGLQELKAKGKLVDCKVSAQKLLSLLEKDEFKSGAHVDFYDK

SMILES	IC50 [pM]
Cc1nn2c(O)c(C(=O)NC3CC3)c(=O)n(CC(C)C)c2c1/C=C/C(=O)N1CCN(CC2CC(F)(F)C2)CC1 [Synthesis Example 698, (E)-N-Cyclopropyl-3-(3-(4-((3,3-difluorocyclobutyl)methyl)piperazin-1-yl)-3-oxoprop-1-en-1-yl)-7-hydroxy-4-isobutyl-2-methyl-5-oxo-4,5-dihydropyrazolo[1,5-a]pyrimidine-6-carboxamide]	1520
Cc1nn2c(O)c(C(=O)NC3CC3)c(=O)n(CC(C)C)c2c1/C=C/C(=O)N1CCc2ccncc21 [Synthesis Example 699, (E)-N-Cyclopropyl-3-(3-(2,3-dihydro-1H-pyrrolo[2,3-c]pyridin-1-yl)-3-oxoprop-1-en-1-yl)-7-hydroxy-4-isobutyl-2-methyl-5-oxo-4,5-dihydropyrazolo[1,5-a]pyrimidine-6-carboxamide]	1470
Cc1nn2c(O)c(C(=O)NC3CC3)c(=O)n(CC(C)C)c2c1/C=C/C(=O)N1CC[C@@H](C(C)(C)O)C1 [Synthesis Example 700, (R,E)-N-Cyclopropyl-7-hydroxy-3-(3-(3-(2-hydroxypropan-2-yl)pyrrolidin-1-yl)-3-oxoprop-1-en-1-yl)-4-isobutyl-2-methyl-5-oxo-4,5-dihydropyrazolo[1,5-a]pyrimidine-6-carboxamide]	960
Cc1nn2c(O)c(C(=O)NC3CC3)c(=O)n(CC(C)C)c2c1/C=C/C(=O)N1CCN(C)C[C@@H]1C [Synthesis Example 701, (S,E)-N-Cyclopropyl-3-(3-(2,4-dimethylpiperazin-1-yl)-3-oxoprop-1-en-1-yl)-7-hydroxy-4-isobutyl-2-methyl-5-oxo-4,5-dihydropyrazolo[1,5-a]pyrimidine-6-carboxamide]	980
Cc1nn2c(O)c(C(=O)NC3CC3)c(=O)n(CC(C)C)c2c1/C=C/C(=O)N1CCN(C)C[C@H]1C [Synthesis Example 702, (R,E)-N-Cyclopropyl-3-(3-(2,4-dimethylpiperazin-1-yl)-3-oxoprop-1-en-1-yl)-7-hydroxy-4-isobutyl-2-methyl-5-oxo-4,5-dihydropyrazolo[1,5-a]pyrimidine-6-carboxamide]	870
Cc1nn2c(O)c(C(=O)NC3CC3)c(=O)n(CC(C)C)c2c1/C=C/C(=O)N1CCN(CC2CC(F)(F)C2)C[C@@H]1C [Synthesis Example 703, (S,E)-N-Cyclopropyl-3-(3-(4-((3,3-difluorocyclobutyl)methyl)-2-methylpiperazin-1-yl)-3-oxoprop-1-en-1-yl)-7-hydroxy-4-isobutyl-2-methyl-5-oxo-4,5-dihydropyrazolo[1,5-a]pyrimidine-6-carboxamide]	1440
Cc1nn2c(O)c(C(=O)NC3CC3)c(=O)n(CC(C)C)c2c1/C=C/C(=O)N1CCN(CC2CC(F)(F)C2)C[C@H]1C [Synthesis Example 704, (R,E)-N-Cyclopropyl-3-(3-(4-((3,3-difluorocyclobutyl)methyl)-2-methylpiperazin-1-yl)-3-oxoprop-1-en-1-yl)-7-hydroxy-4-isobutyl-2-methyl-5-oxo-4,5-dihydropyrazolo[1,5-a]pyrimidine-6-carboxamide]	1520
Cc1nn2c(O)c(C(=O)NC3CC3)c(=O)n(CC(C)C)c2c1/C=C/C(=O)N1CCc2cnccc21 [Synthesis Example 705, (E)-N-Cyclopropyl-3-(3-(2,3-dihydro-1H-pyrrolo[3,2-c]pyridin-1-yl)-3-oxoprop-1-en-1-yl)-7-hydroxy-4-isobutyl-2-methyl-5-oxo-4,5-dihydropyrazolo[1,5-a]pyrimidine-6-carboxamide]	1580
Cc1nn2c(O)c(C(=O)NC3CC3)c(=O)n(CC(C)C)c2c1/C=C/C(=O)N1CCOCC12CC2 [Synthesis Example 706, (E)-N-Cyclopropyl-7-hydroxy-4-isobutyl-2-methyl-5-oxo-3-(3-oxo-3-(7-oxa-4-azaspiro[2.5]octan-4-yl)prop-1-en-1-yl)-4,5-dihydropyrazolo[1,5-a]pyrimidine-6-carboxamide]	820
CCN1CCN(C(=O)/C=C/c2c(C)nn3c(O)c(C(=O)NC4CC4)c(=O)n(CC(C)C)c23)[C@@H](C)C1 [Synthesis Example 707, (S,E)-N-Cyclopropyl-3-(3-(4-ethyl-2-methylpiperazin-1-yl)-3-oxoprop-1-en-1-yl)-7-hydroxy-4-isobutyl-2-methyl-5-oxo-4,5-dihydropyrazolo[1,5-a]pyrimidine-6-carboxamide]	840
CC(C)Cn1c(=O)c(C(=O)NC2CC2)c(O)n2ncc(/C=C/C(=O)N3C[C@H]4COC[C@H]4C3)c12 [Synthesis Example 708, N-Cyclopropyl-7-hydroxy-4-isobutyl-5-oxo-3-((E)-3-oxo-3-((3aR,6aS)-tetrahydro-1H-furo[3,4-c]pyrrol-5(3H)-yl)prop-1-en-1-yl)-4,5-dihydropyrazolo[1,5-a]pyrimidine-6-carboxamide]	740
CC(C)Cn1c(=O)c(C(=O)NC2CC2)c(O)n2ncc(/C=C/C(=O)N(C)Cc3cnccn3)c12 [Synthesis Example 709, (E)-N-Cyclopropyl-7-hydroxy-4-isobutyl-3-(3-(methyl(pyrazin-2-ylmethyl)amino)-3-oxoprop-1-en-1-yl)-5-oxo-4,5-dihydropyrazolo[1,5-a]pyrimidine-6-carboxamide]	850
CC(C)Cn1c(=O)c(C(=O)NC2CC2)c(O)n2ncc(/C=C/C(=O)N(C)Cc3ccccn3)c12 [Synthesis Example 710, (E)-N-Cyclopropyl-7-hydroxy-4-isobutyl-3-(3-(methyl(pyridin-2-ylmethyl)amino)-3-oxoprop-1-en-1-yl)-5-oxo-4,5-dihydropyrazolo[1,5-a]pyrimidine-6-carboxamide]	1010
CC(C)Cn1c(=O)c(C(=O)NC2CC2)c(O)n2ncc(/C=C/C(=O)N(C)Cc3ncccn3)c12 [Synthesis Example 711, (E)-N-Cyclopropyl-7-hydroxy-4-isobutyl-3-(3-(methyl(pyrimidin-2-ylmethyl)amino)-3-oxoprop-1-en-1-yl)-5-oxo-4,5-dihydropyrazolo[1,5-a]pyrimidine-6-carboxamide]	1200
CC(C)Cn1c(=O)c(C(=O)NC2CC2)c(O)n2ncc(/C=C/C(=O)N(C)Cc3cccnc3)c12 [Synthesis Example 712, (E)-N-Cyclopropyl-7-hydroxy-4-isobutyl-3-(3-(methyl(pyridin-3-ylmethyl)amino)-3-oxoprop-1-en-1-yl)-5-oxo-4,5-dihydropyrazolo[1,5-a]pyrimidine-6-carboxamide]	1190
CC(C)Cn1c(=O)c(C(=O)NC2CC2)c(O)n2ncc(/C=C/C(=O)N3CCN(C)C[C@@H]3C)c12 [Synthesis Example 713, (S,E)-N-Cyclopropyl-3-(3-(2,4-dimethylpiperazin-1-yl)-3-oxoprop-1-en-1-yl)-7-hydroxy-4-isobutyl-5-oxo-4,5-dihydropyrazolo[1,5-a]pyrimidine-6-carboxamide]	960
CC(C)Cn1c(=O)c(C(=O)NC2CC2)c(O)n2ncc(/C=C/C(=O)N3CCN(CC4CC(F)(F)C4)CC3)c12 [Synthesis Example 714, (E)-N-Cyclopropyl-3-(3-(4-((3,3-difluorocyclobutyl)methyl)piperazin-1-yl)-3-oxoprop-1-en-1-yl)-7-hydroxy-4-isobutyl-5-oxo-4,5-dihydropyrazolo[1,5-a]pyrimidine-6-carboxamide]	2540
CC(C)Cn1c(=O)c(C(=O)NC2CC2)c(O)n2ncc(/C=C/C(=O)N3CCN(C4CC(F)(F)C4)C[C@H]3C)c12 [Synthesis Example 715, (R,E)-N-Cyclopropyl-3-(3-(4-(3,3-difluorocyclobutyl)-2-methylpiperazin-1-yl)-3-oxoprop-1-en-1-yl)-7-hydroxy-4-isobutyl-5-oxo-4,5-dihydropyrazolo[1,5-a]pyrimidine-6-carboxamide]	1280
CC(C)Cn1c(=O)c(C(=O)NC2CC2)c(O)n2ncc(/C=C/C(=O)N3C[C@@H](C)OC[C@H]3C)c12 [Synthesis Example 716, N-Cyclopropyl-3-((E)-3-((2R,5R)-2,5-dimethylmorpholino)-3-oxoprop-1-en-1-yl)-7-hydroxy-4-isobutyl-5-oxo-4,5-dihydropyrazolo[1,5-a]pyrimidine-6-carboxamide]	880
CC(C)Cn1c(=O)c(C(=O)NC2CC2)c(O)n2ncc(/C=C/C(=O)N3C[C@H](C)OC[C@@H]3C)c12 [Synthesis Example 717, N-Cyclopropyl-3-((E)-3-((2S,5S)-2,5-dimethylmorpholino)-3-oxoprop-1-en-1-yl)-7-hydroxy-4-isobutyl-5-oxo-4,5-dihydropyrazolo[1,5-a]pyrimidine-6-carboxamide]	780
CC(C)Cn1c(=O)c(C(=O)NC2CC2)c(O)n2ncc(/C=C/C(=O)N3C[C@H](C)OC[C@H]3C)c12 [Synthesis Example 718, N-Cyclopropyl-3-((E)-3-((2S,5R)-2,5-dimethylmorpholino)-3-oxoprop-1-en-1-yl)-7-hydroxy-4-isobutyl-5-oxo-4,5-dihydropyrazolo[1,5-a]pyrimidine-6-carboxamide]	740
CC(C)Cn1c(=O)c(C(=O)NC2CC2)c(O)n2ncc(/C=C/C(=O)N3C4CCC3CC(F)(F)C4)c12 [Synthesis Example 719, (E)-N-Cyclopropyl-3-(3-(3,3-difluoro-8-azabicyclo[3.2.1]octan-8-yl)-3-oxoprop-1-en-1-yl)-7-hydroxy-4-isobutyl-5-oxo-4,5-dihydropyrazolo[1,5-a]pyrimidine-6-carboxamide]	770
CC(C)Cn1c(=O)c(C(=O)NC2CC2)c(O)n2ncc(/C=C/C(=O)N3CC4CCC(C3)C4(F)F)c12 [Synthesis Example 720, (E)-N-Cyclopropyl-3-(3-(8,8-difluoro-3-azabicyclo[3.2.1]octan-3-yl)-3-oxoprop-1-en-1-yl)-7-hydroxy-4-isobutyl-5-oxo-4,5-dihydropyrazolo[1,5-a]pyrimidine-6-carboxamide]	1030
